Key:
[1] = Hydrophobic drug loading capacity of NPs (UV-vis/HPLC); assay type: physicochemical
Excerpt: In this drug loading strategy, DGKi or other hydrophobic drugs in organic solvent are mixed with an aqueous suspension of amph-NPs and dialyzed to remove the organic solvent, leading to partitioning of the drug into the hydrophobic pockets of the amph-NP ligand shell. This approach allowed one to load drugs that are nearly insoluble in aqueous solutions to high degrees of “solubility” via incorporation into MUS or MUSOT amph-NPs.
More detailed procedures to prepare small molecules-loaded NPs are as follows: Hydrophobic small molecules are dissolved in pure ethanol, and mixed with NPs in a dialysis tube against water. Dialysis tubes containing 100-500 Da molecular weight cut off allows ethanol to permeate while retains most small molecules. […] Loaded drugs were then quantified via absorbance using UV-vis spectrometer.
To test immunomodulatory drug loading capacity, small-molecule drug N-acetylcysteine (NAC) was loaded directly onto the gold core via sulfur-gold covalent bonding. […] The drug loading efficiency was determined by HPLC and UV-vis.
In this drug loading strategy, DGKi or other hydrophobic drugs in organic solvent are mixed with an aqueous suspension of amph-NPs and dialyzed to remove the organic solvent, leading to partitioning of the drug into the hydrophobic pockets of the amph-NP ligand shell. […] Loaded drugs were then quantified via absorbance using UV-vis spectrometer. […]

DCs, B and T cells = test: Immune cell activation in lymph nodes after s.c. R848; assay type: in vivo, C57BL/6 mice; conditions: doses above 5 μg, 24 h post injection
Experimental: From there they disperse into the body and drain into the lymph system where they encounter cells sensitive to their adjuvants. Serum inflammatory cytokines were tested one hour post injection given the short half-life of small molecules.
R848 (Resiquimod, a TLR7/8 agonist) was loaded into amph-NPs, and administered subcutaneously at the tail base. Serum was collected 1 hour post injection to evaluate systemic toxicity. Cells in LNs were isolated 24 h post injection to analyze immune cell activation.
Small molecules like R848 diffuse quickly into blood vessels, which may lead to severe systemic adverse effect. An experiment was designed to determine if by using lymph node targeted NPs, systemic adverse effects could be reduced while activation of local lymphocytes remains effective. Systemic toxicity was compared by measuring TNF, IL-6, IL-10, and MCP-1, and measuring activation of lymphatic cells.

Cytotoxic T cells = test: T cell proliferation under PD-L1 induced suppression; assay type: cell-based; conditions: αCD3/CD28 activated
Experimental: Cytotoxic T cells were incubated with αCD3/CD28 activating antibody and either control IgG, or with PD-L1 IgG (PD-1 agonist antibody) to induce T cell suppression, and further treated with vehicle, DGK inhibitor alone, DGK inhibitor loaded amph-NP, or amph-NP alone.

PD-1 = test: cell-based or functional assay

Molecule: CN[C@@H](C)C(=O)N[C@H](C(=O)N1CCC[C@H]1c1nc(C(=O)c2ccc(F)cc2)cs1)C1CCCCC1 [LCL161]
- loading in amph-NPs [1]: loads well

Molecule: CCOCc1nc2c(N)nc3ccccc3c2n1CC(C)(C)O [R848, Resiquimod]
- activation of immune cells in LNs (DCs, B and T cells): activated DCs, B and T cells

Molecule: Cc1nc2sccn2c(=O)c1CCN1CCC(=C(c2ccccc2)c2ccc(F)cc2)CC1 [diacyl kinase inhibitor]
- % proliferating cells (Cytotoxic T cells; PD-L1 IgG (suppressed)): 2.71%
- % proliferating cells (Cytotoxic T cells; control IgG): 89.9%

Molecule: PD-L1 IgG (PD-1 agonist antibody)
- % proliferating cells (cytotoxic T cells with anti-CD3/CD28, vehicle / no treatment; control IgG gave 71.3%) (PD-1): 0.98%

Reference: patent publication US20180311174A1, “NANOPARTICLES COMPRISING A METAL CORE SURROUNDED BY A MONOLAYER FOR LYMPH NODE TARGETING” (Massachusetts Institute of Technology, priority 2015, published 2018)
